According to ChEMBL document CHEMBL1143179 (Bioorg Med Chem Lett, 2008):
Calls of active or inactive are those of the source. The calls are words filed in the database; no cut-off is given here.

Key:
[1] = target: T1, Prostaglandin E2 receptor EP4 subtype (Homo sapiens, UniProt P35408); assay: Agonist activity at human EP4 receptor by cAMP assay; type: functional
[2] = target: T2, Prostaglandin E2 receptor EP2 subtype (Homo sapiens, UniProt P43116); assay: Displacement of [3H]PGE2 from human EP2 receptor
T2 sequence (P43116 whole entry): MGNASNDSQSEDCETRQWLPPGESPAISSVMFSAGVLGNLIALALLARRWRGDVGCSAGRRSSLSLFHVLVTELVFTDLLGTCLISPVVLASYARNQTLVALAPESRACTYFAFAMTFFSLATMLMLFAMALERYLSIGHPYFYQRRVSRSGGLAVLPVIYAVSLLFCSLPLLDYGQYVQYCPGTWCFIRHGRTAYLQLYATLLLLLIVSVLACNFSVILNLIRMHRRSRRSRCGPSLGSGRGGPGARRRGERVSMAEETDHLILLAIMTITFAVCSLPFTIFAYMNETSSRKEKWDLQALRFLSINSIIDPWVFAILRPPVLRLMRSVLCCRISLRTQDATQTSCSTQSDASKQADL

[3] = target: T1, Prostaglandin E2 receptor EP4 subtype; assay: Displacement of […] from human EP4 receptor
[4] = target: T2, Prostaglandin E2 receptor EP2 subtype; assay: Agonist activity at human EP2 receptor by cAMP assay; type: functional
Mus musculus [5] = assay: Induction of ovulation in po dosed CD1 mouse; type: functional
Mus musculus [6] = assay: Induction of ovulation in sc dosed CD1 mouse; type: functional
[7] = Half life in rat at 10 mg/kg, sc; type: ADME, organism-based; set-up: dose 10 mg/kg, route subcutaneous; conditions: in vivo
[8] = Tmax in rat at 10 mg/kg, po; type: ADME, organism-based; set-up: dose 10 mg/kg, route oral; conditions: in vivo
[9] = Clearance in rat at 10 mg/kg; type: ADME, organism-based; set-up: dose 10 mg/kg; conditions: in vivo
Cavia porcellus [10] = assay: Inhibition of methacholine-induced bronchoconstriction in Duncan-Hartley guinea pig at >3 ug/kg; type: functional
Rattus norvegicus [11] = assay: Bioavailability in rat at 10 mg/kg, sc; type: ADME, organism-based; conditions: in vivo
[12] = Half life in rat at 10 mg/kg, po; type: ADME, organism-based; set-up: dose 10 mg/kg, route oral; conditions: in vivo
Rattus norvegicus [13] = assay: AUC (0 to 48 hrs) in rat at 10 mg/kg, sc; type: ADME, organism-based, Plasma; set-up: time < 48 hr, dose 10 mg/kg, route subcutaneous; conditions: in vivo
Rattus norvegicus [14] = assay: AUC (0 to 48 hrs) in rat at 10 mg/kg, po; type: ADME, organism-based, Plasma; set-up: time < 48 hr, dose 10 mg/kg, route oral; conditions: in vivo
[15] = Drug distribution in rat at 10 mg/kg, iv; type: ADME, organism-based; set-up: dose 10 mg/kg, route intravenous; conditions: in vivo, read-out: Drug uptake
[16] = Tmax in rat at 10 mg/kg, sc; type: ADME, organism-based; set-up: dose 10 mg/kg, route subcutaneous; conditions: in vivo
Cavia porcellus [17] = species on record: Cavia porcellus; assay: Inhibition of methacholine-induced bronchoconstriction in Duncan-Hartley guinea pig; type: functional
[18] = Tmax in rat at 10 mg/kg, iv; type: ADME, organism-based; set-up: dose 10 mg/kg, route intravenous; conditions: in vivo
[19] = Half life in rat at 10 mg/kg, iv; type: ADME, organism-based; set-up: dose 10 mg/kg, route intravenous; conditions: in vivo
Rattus norvegicus [20] = assay: AUC (0 to 48 hrs) in rat at 10 mg/kg, iv; type: ADME, organism-based, Plasma; set-up: time < 48 hr, dose 10 mg/kg, route intravenous; conditions: in vivo
Rattus norvegicus [21] = assay: Oral bioavailability in rat at 10 mg/kg; type: ADME, organism-based; conditions: in vivo

T1 sequence (P35408 whole entry): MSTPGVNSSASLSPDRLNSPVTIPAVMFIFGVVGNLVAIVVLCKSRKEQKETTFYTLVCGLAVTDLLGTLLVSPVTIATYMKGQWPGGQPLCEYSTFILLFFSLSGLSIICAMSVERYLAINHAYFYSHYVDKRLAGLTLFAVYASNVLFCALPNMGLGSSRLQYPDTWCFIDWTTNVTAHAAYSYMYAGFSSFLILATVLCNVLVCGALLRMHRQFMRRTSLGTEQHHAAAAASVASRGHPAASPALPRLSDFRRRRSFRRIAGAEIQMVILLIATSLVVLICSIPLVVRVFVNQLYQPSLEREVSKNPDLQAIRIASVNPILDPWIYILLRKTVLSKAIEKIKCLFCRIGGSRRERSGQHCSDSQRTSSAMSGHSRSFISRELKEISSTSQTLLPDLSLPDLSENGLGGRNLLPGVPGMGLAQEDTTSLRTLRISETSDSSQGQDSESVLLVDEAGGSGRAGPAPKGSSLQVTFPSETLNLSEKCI

Compound	EC50 [1]	Ki [2]	Ki [3]	EC50 [4]	other results
CCCC1([C@H](O)C/C=C/[C@H]2[C@H](O)CC(=O)[C@@H]2CCCCCCC(=O)OC)CCC1					Activity (Mus musculus [5]): inactive
CC[C@H](O)/C=C/[C@H]1CCC(=O)N1CCc1ccc(C(=O)O)cc1		> 10000 nM	490 nM		
O=C(O)c1ccc(CCN2C(=O)CC[C@@H]2/C=C/[C@@H](O)Cc2ccccc2)cc1	0.03 nM	2540 nM		434 nM	
CCCCC[C@H](O)/C=C/[C@H]1CCC(=O)N1CCc1ccc(C(=O)O)cc1	0.02 nM			15 nM	half-life [7]: 31.6 h; Tmax [8]: 4 h; clearance [9]: 9.17 mL/min/kg; Inhibition (Cavia porcellus [10]): >50%; F (Rattus norvegicus [11]): 82%; half-life [12]: 20.8 h; AUC (Rattus norvegicus [13]): 35175.6 ng·h/mL; AUC (Rattus norvegicus [14]): 14657.8 ng·h/mL; Vd [15]: 42.4 L/kg; Tmax [16]: 0.25 h; ED50 (Cavia porcellus [17]): 0.0017 mg/kg; Tmax [18]: 4.98 min; half-life [19]: 14.3 h; AUC (Rattus norvegicus [20]): 18095.3 ng·h/mL; F (Rattus norvegicus [21]): 33%
CCC[C@H](O)/C=C/[C@H]1CCC(=O)N1CCc1ccc(C(=O)O)cc1		25000 nM	27 nM		

The remaining molecules from weak to strong by Ki [2], led by results:

EC50 [1]	Ki [2]	Ki [3]	EC50 [4]	Compound	other results
0.03 nM	1000 nM	0.02 nM	250 nM	O=C(O)c1ccc(CCN2C(=O)CC[C@@H]2/C=C/[C@@H](O)Cc2cccc(Cl)c2)cc1	Activity (Mus musculus [6]): inactive
0.04 nM	425 nM	1 nM	80 nM	CCCC[C@H](O)/C=C/[C@H]1CCC(=O)N1CCc1ccc(C(=O)O)cc1	
3 nM	141 nM	9 nM	19 nM	CCCCC(C)(C)[C@H](O)/C=C/[C@H]1CCC(=O)N1CCc1ccc(C(=O)O)cc1	
	54 nM			CCCCCC[C@H](O)/C=C/[C@H]1CCC(=O)N1CCc1ccc(C(=O)O)cc1	
0.3 nM	21 nM	2 nM	3 nM	CCCCC1([C@@H](O)/C=C/[C@H]2CCC(=O)N2CCc2ccc(C(=O)O)cc2)CCC1	Activity (Mus musculus [6]): inactive; ED50 (Mus musculus [5]): 1 mg/kg
